Measurements from article PMC8588041, “Protective Role of Flavonoids against Intestinal Pro-Inflammatory Effects of Silver Nanoparticles” (Molecules, 2021).
Like-named read-outs stand apart in the source and are kept apart here.

Experiments:
Caco-2 cell line [1] = experiment: Annexin V-FITC versus propidium iodide flow cytometry (cell death); settings: for Apoptosis-preventive effect (apoptotic population versus AgNP controls): flavonoid 25 μM co-incubated 24 h with 4 nm and 19 nm AgNP 20 µg/mL, Caco-2
Procedure: The evaluation of cell death was analyzed by flow cytometry, following simultaneous staining with propidium iodide (PI) and Annexin V labeled with fluorescein isothiocyanate (FITC), according to a previously described method, using the Annexin V-FITC Apoptosis Detection Kit. Briefly, 5 × 10^5 cells/well were seeded in 6 well plates and exposed to 20 μg/mL AgNP (4 and 19 nm) and/or to the flavonoids quercetin or quercetagetin (25 μM) for 24 h. […] After the 24 h exposure, cell supernatants were discarded, and cells were washed with DPBS buffer and detached from cells plates with trypsin:EDTA solution. Individualized cells were counted in a Neubauer chamber, and after DPBS wash, cells were resuspended at a density of 1 × 10^6 cells/mL binding buffer provided by the kit. Subsequently, 1 × 10^5 cells were transferred to suitable cytometry tubes, and Annexin V-FITC and PI were added. The mixture was incubated for 15 min and at least 10,000 events were immediately read in a BD Accuri™ C6 Plus Flow Cytometer (BD biosciences, Becton, Franklin Lakes, NJ, USA). The green fluorescence corresponding to Annexin-V conjugated with FITC was followed in channel 1 (FL1) and plotted as a histogram of FL1 staining. Fluorescence due to the PI incorporation was followed in channel 3 (FL3).

Caco-2 cell line [2] = experiment: Nitrite measurement by Griess reaction (•NO production); assay type: cell-based, human; settings: for Prevention of AgNP-induced •NO production: flavonoids at maximum non-cytotoxic concentrations, Caco-2, 24 h, data not shown
Procedure: Nitrite measurement was based on the colorimetric detection of the reaction product of nitrite with naphthylethylenediamine dihydrochloride. The concentration of nitrite, which reflects nitric oxide (^•NO) production, was measured in the cell-free supernatants collected from the Caco-2 cell line. […] After the incubation period, 150 μL of culture medium was collected and placed in 96-well plates. […] The absorbance was measured at 570 nm using an automatic plate reader.

human neutrophils [3] = experiment: Neutrophil viability, PI staining flow cytometry; assay type: cell-based; settings: PEI 10 μg/mL, AgNO3 3 μg/mL, data not shown
Procedure: Following exposure, cells were centrifuged (400× g at 20 °C, during 5 min) and the supernatant was discarded. The pellet was resuspended in DPBS solution and centrifuged (200g at 20 °C, during 5 min). After centrifugation, the pellet was resuspended with 100 μL propidium iodide solution (1 µg/mL) and incubated for 15 min in the dark. After this time, 400 μL of DPBS buffer was added and the fluorescence was measured in flow cytometer. To restrict the analysis to neutrophils only, a polygon gate was set according to their light scattering properties (in a forward vs. side scatter plot) excluding cell debris and other blood cells. Fluorescence signals for at least 10,000 cells were collected in logarithmic mode and the data were analyzed using C Flow (Accuri®) software (BD, Becton, Dickinson and Company, Franklin Lakes, NJ, USA).

human neutrophils [4] = experiment: Neutrophil oxidative burst, DHR oxidation; settings: for Effect of inhibitors on AgNP-induced DHR oxidation: DPI 10 µM, VAS2870 25 µM, Gö6983 1 µM, added with AgNP 10 µg/mL (4 nm and 19 nm); for Percentage of inhibition at the highest tested concentration: 25 μM flavonoid
Procedure: All patient-related procedures and protocols were performed in accordance with the Declaration of Helsinki and approved by the Ethics Committee of Centro Hospitalar do Porto. After written informed consent was obtained, venous blood from healthy human volunteers was collected by antecubital phlebotomy into vacuum tubes with K3EDTA. The isolation of human neutrophils was performed by the density gradient centrifugation method, as previously reported by our research group. Cells were resuspended in Tris buffer (25 mM Tris, 1.26 mM CaCl2, 5.37 mM KCl, 0.81 mM MgSO4, 140 mM NaCl and 5.55 mM D-Glucose) and the cell viability and cell yield (number of cells/mL) were determined by the trypan blue exclusion method using a Neubauer chamber.
The measurement of neutrophil oxidative burst was performed by monitoring the oxidation of DHR, by neutrophil-generated reactive species. Neutrophils (3 × 10^6 cells/mL) were incubated in a humidified incubator, at 37 °C, with 4 nm or 19 nm AgNP (0–10 µg/mL) alone or with flavonoids (0–25 µM) followed by DHR (10 µM) for 1 h 30 min.
The NADPH oxidase inhibitors, DPI (10 µM) and VAS2870 (25 µM), and the protein kinase C (PKC) inhibitor, Gö6983 (1 µM), were also tested, by their concomitant addition with AgNP (10 µg/mL). The fluorescence was measured in a microplate reader (λexcitation = 507 ± 20 nm/λemmission = 529 ± 20 nm).

Caco-2 cell line [5] = experiment: MTT reduction assay, cytotoxicity in Caco-2 cells; settings: for Selected Maximum Concentration (maximum non-cytotoxic flavonoid concentration): Caco-2 cells, 24 h, MTT assay, tested 3.13 to 50 μM; for Protection against AgNP-induced cytotoxicity: 24 h co-incubation with 20 or 50 μg/mL AgNP (4 and 19 nm), non-toxic flavonoid concentrations (quercetagetin 50 µM)
Procedure: Cells were grown in a 5% CO2 atmosphere at 37 °C. For each experiment, the cells were used when reaching 80% of confluence, which represented 3 to 5 days of differentiation. Then, the proliferating Caco-2 cells were treated 24 h after seeding.
The MTT reduction assay was used to determine the cytotoxicity of PEI coated-AgNP of two sizes (4 and 19 nm) in the Caco-2 cell line. […] After the exposure period, the culture medium was replaced with fresh medium containing 0.5 mg/mL MTT and the cells were further incubated for 2 h. The resulting dark purple crystals of formazan were then dissolved in DMSO and the absorbance of the corresponding solution, which was directly proportional to the number of living cells, was measured in an automatic plate reader set at a test wavelength of 570 nm and a reference wavelength of 620 nm.

Caco-2 cells = settings: cited from earlier work
[6] = Homo sapiens, Neutrophil, read-out: IC50 (Mean ± SEM), inhibition of AgNP 4 nm-induced oxidative burst, AgNP 4 nm, human neutrophils, DHR
[7] = Homo sapiens, Neutrophil, read-out: IC50 (Mean ± SEM), inhibition of AgNP 19 nm-induced oxidative burst, AgNP 19 nm, human neutrophils, DHR
[8] = read-out: IC50 (Mean ± SEM), inhibition of AgNP 4 nm-induced oxidative burst, AgNP 4 nm, human neutrophils, DHR

## O=[N+]([O-])[O-].[Ag+] [AgNO3, Silver nitrate, reference compound]
Caco-2 cell line [1]; PEI 20 μg/mL, AgNO3 4.5 μg/mL, Caco-2, 24 h, data not shown
  Cell viability (Annexin V/PI): did not induce significant alterations in cell viability
Caco-2 cell line [2]; 9 μg/mL AgNO3, 24 h, Caco-2
  •NO production: induced a significant production of ^•NO
Human neutrophils [3]
  Neutrophil viability: did not affect neutrophil viability
Human neutrophils [4]; PEI 10 μg/mL, AgNO3 3 μg/mL, data not shown
  Neutrophil oxidative burst: did not affect neutrophil oxidative burst

## c1ccc2c(c1)[I+]c1ccccc1-2 [DPI, diphenyleneiodonium chloride, reference compound]
Human neutrophils [4]
  Effect of inhibitors on AgNP-induced DHR oxidation: decreased DHR oxidation induced by 4nm and 19 nm AgNP

## COc1ccc(-c2cc(=O)c3c(O)cc(O)cc3o2)cc1O [Diosmetin]
Human neutrophils [4]; AgNP 4 nm, human neutrophils, DHR
  Percentage of inhibition at the highest tested concentration: 37 ± 3 %
Human neutrophils [4]; AgNP 19 nm, human neutrophils, DHR
  Percentage of inhibition at the highest tested concentration: 37 ± 7 %
Human neutrophils [4]; Homo sapiens, Neutrophil, read-out: IC50, inhibition of AgNP-induced neutrophil oxidative burst, AgNP of 4 and 19 nm, human neutrophils, DHR
  IC50: > 25 µM

## O=c1c(O)c(-c2ccc(O)c(O)c2)oc2c(O)c(O)cc(O)c12 [Gossypetin]
Human neutrophils [4]; Homo sapiens, Neutrophil, read-out: IC50 (Mean ± SEM), inhibition of AgNP 4 nm-induced oxidative burst
  IC50: 2.1 ± 0.3 µM
Human neutrophils [4]; Homo sapiens, Neutrophil, read-out: IC50 (Mean ± SEM), inhibition of AgNP 19 nm-induced oxidative burst
  IC50: 4.5 ± 1.2 µM

## COc1ccc2c(c1)c(C1=C(c3c[nH]c4ccccc34)C(=O)NC1=O)cn2CCCN(C)C [Gö6983, 3-[1-[3-(dimethylamino)propyl]-5-methoxy-1H-indol-3-yl]-4-(1H-indol-3-yl)-1H-pyrrole-2,5-dione, reference compound]
Human neutrophils [4]
  Effect of inhibitors on AgNP-induced DHR oxidation: prevented the activation of neutrophil oxidative burst induced by AgNP

## O=c1cc(-c2ccc(O)c(O)c2)oc2cc(O)cc(O)c12 [Luteolin]
Caco-2 cell line [5]
  Selected Maximum Concentration (maximum non-cytotoxic flavonoid concentration): 12.5 µM
Human neutrophils [4]; [6]
  IC50: 1.3 ± 0.2 µM
Human neutrophils [4]; [7]
  IC50: 1.3 ± 0.2 µM

## O=c1c(O)c(-c2ccc(O)cc2O)oc2cc(O)cc(O)c12 [Morin]
Caco-2 cell line [5]
  Selected Maximum Concentration (maximum non-cytotoxic flavonoid concentration): 50.0 µM
Human neutrophils [4]; [6]
  IC50: 1.4 ± 0.4 µM
Human neutrophils [4]; [7]
  IC50: 1.5 ± 0.4 µM

## O=c1c(O)c(-c2cc(O)c(O)c(O)c2)oc2cc(O)cc(O)c12 [Myricetin]
Caco-2 cell line [5]
  Selected Maximum Concentration (maximum non-cytotoxic flavonoid concentration): 50.0 µM
Human neutrophils [4]; [6]
  IC50: 2.3 ± 0.1 µM
Human neutrophils [4]; [7]
  IC50: 3.1 ± 0.2 µM

## O=c1c(O)c(-c2ccc(O)c(O)c2)oc2cc(O)c(O)c(O)c12 [Quercetagetin]
Caco-2 cell line [5]
  Protection against AgNP-induced cytotoxicity: prevented the cytotoxic effects of the two sizes of AgNP
  Selected Maximum Concentration (maximum non-cytotoxic flavonoid concentration): 50.0 µM
Caco-2 cell line [5]; listed as quercetagetin
  Protection against AgNP-induced cytotoxicity: significantly reduced the cell death induced by AgNP of 4 and 19 nm
Caco-2 cell line [1]; co-treatment with 4 nm AgNP (20 μg/mL), Caco-2, 24 h
  Percentage of apoptotic cells on co-treatment: increased the percentage of apoptotic cells
Caco-2 cell line [1]
  Apoptosis-preventive effect (apoptotic population versus AgNP controls): did not significantly decrease the apoptotic population
Caco-2 cell line [2]
  Prevention of AgNP-induced •NO production: neither quercetin nor quercetagetin prevented AgNP-induced ^•NO production
Human neutrophils [4]; [6]
  IC50: < 1 µM
Human neutrophils [4]; [7]
  IC50: 3 ± 0.2 µM
Human neutrophils [4]; [8]
  IC50: 0.53 ± 0.06 µM

## O=c1c(O)c(-c2ccc(O)c(O)c2)oc2cc(O)cc(O)c12 [Quercetin]
Caco-2 cell line [5]
  Protection against AgNP-induced cytotoxicity: partially prevented AgNP cytotoxicity
  Selected Maximum Concentration (maximum non-cytotoxic flavonoid concentration): 25.0 µM
Caco-2 cell line [5]; listed as quercetin
  Protection against AgNP-induced cytotoxicity: significantly reduced the cell death induced by AgNP of 4 and 19 nm
Caco-2 cell line [1]
  Apoptosis-preventive effect (apoptotic population versus AgNP controls): reversed the pro-apoptotic effect of AgNP
Caco-2 cell line [2]
  Prevention of AgNP-induced •NO production: neither quercetin nor quercetagetin prevented AgNP-induced ^•NO production
Human neutrophils [4]; [6]
  IC50: < 1 µM
Human neutrophils [4]; [7]
  IC50: 3.1 ± 0.6 µM
Human neutrophils [4]; [8]
  IC50: 0.94 ± 0.09 µM
Caco-2 cells; 10 and 50 µM, Caco-2 cells treated with AgNP < 20 nm (30–90 μg/mL)
  Reversal of loss of viability induced by AgNP: most effectively reversed the loss of viability induced by AgNP
Caco-2 cells; quercetin 50 µM, AgNP ≥45 μg/mL, ref Martirosyan et al.
  Reversal of toxicity induced by AgNP: successfully reverted the toxicity induced by AgNP

## c1ccc(Cn2nnc3c(Sc4nc5ccccc5o4)ncnc32)cc1 [VAS2870, reference compound]
Human neutrophils [4]
  Effect of inhibitors on AgNP-induced DHR oxidation: decreased DHR oxidation induced by 4nm and 19 nm AgNP
